In paper PMC7827014, “Synthetic Transition from Thiourea-Based Compounds to Tetrazole Derivatives: Structure and Biological Evaluation of Synthesized New N-(Furan-2-ylmethyl)-1H-tetrazol-5-amine Derivatives” (Molecules, 2021) one finds MIC data, which are given here for 13 compounds.

In brackets after ≈: the same amount, converted by molar mass.

This test concerns M. tuberculosis INH resistant (Spec. 210). The experiment in a line: In vitro antitubercular MIC. Type of test: cell-based. The conditions noted are these: Mycobacterium tuberculosis, read-out: Minimal inhibitory concentration.
`Clc1ccc(-n2nnnc2NCc2ccco2)cc1` [Compound 8, 1-(4-chlorophenyl)-N-(furan-2-ylmethyl)-1H-tetrazol-5-amine]: the MIC came to 256 µg/mL (≈ 929 µM).

Regarding `Brc1cccc(-n2nnnc2NCc2ccco2)c1` [Compound 7, 1-(3-bromophenyl)-N-(furan-2-ylmethyl)-1H-tetrazol-5-amine], the MIC came to 256 µg/mL (≈ 800 µM).

Take `Brc1ccc(-n2nnnc2NCc2ccco2)cc1` [Compound 10, 1-(4-bromophenyl)-N-(furan-2-ylmethyl)-1H-tetrazol-5-amine]: the MIC came out at 512 µg/mL (≈ 1600 µM).

`Ic1ccc(-n2nnnc2NCc2ccco2)cc1` [Compound 3, N-(furan-2-ylmethyl)-1-(4-iodophenyl)-1H-tetrazol-5-amine]: the MIC amounted to 512 µg/mL (≈ 1390 µM).

In the case of `Fc1ccc(-n2nnnc2NCc2ccco2)cc1` [Compound 1, 1-(4-fluorophenyl)-N-(furan-2-ylmethyl)-1H-tetrazol-5-amine], the MIC came out at 256 µg/mL (≈ 987 µM).

Take `Brc1ccccc1-n1nnnc1NCc1ccco1` [Compound 12, 1-(2-bromophenyl)-N-(furan-2-ylmethyl)-1H-tetrazol-5-amine]: the MIC was 256 µg/mL (≈ 800 µM).

Turning to `Clc1ccccc1-n1nnnc1NCc1ccco1` [Compound 11, 1-(2-chlorophenyl)-N-(furan-2-ylmethyl)-1H-tetrazol-5-amine], the MIC worked out at 256 µg/mL (≈ 929 µM).

Regarding `NNC(=O)c1ccncc1` [INH, isoniazid, reference compound], the MIC is 2 µg/mL (≈ 14.6 µM).

In the case of `Fc1ccccc1-n1nnnc1NCc1ccco1` [Compound 6, 1-(2-fluorophenyl)-N-(furan-2-ylmethyl)-1H-tetrazol-5-amine], the MIC is 256 µg/mL (≈ 987 µM).

Turning to `Clc1ccc(-n2nnnc2NCc2ccco2)cc1Cl` [Compound 5, 1-(3,4-dichlorophenyl)-N-(furan-2-ylmethyl)-1H-tetrazol-5-amine], the MIC was above 512 µg/mL.

Regarding `Cc1ccc(Cl)cc1-n1nnnc1NCc1ccco1` [Compound 2, 1-(5-chloro-2-methylphenyl)-N-(furan-2-ylmethyl)-1H-tetrazol-5-amine], the MIC came out at 512 µg/mL (≈ 1770 µM).

`Fc1cccc(-n2nnnc2NCc2ccco2)c1` [Compound 9, 1-(3-fluorophenyl)-N-(furan-2-ylmethyl)-1H-tetrazol-5-amine]: the MIC amounted to 256 µg/mL (≈ 987 µM).

For `Clc1cccc(-n2nnnc2NCc2ccco2)c1` [Compound 4, 1-(3-chlorophenyl)-N-(furan-2-ylmethyl)-1H-tetrazol-5-amine], the MIC was 256 µg/mL (≈ 929 µM).
